Reference: the NIST ThermoML archive (doi:10.1021/acs.jced.6b00536)
± gives the expanded uncertainty stated by the source.

Settings: Gas, Frequency=0.05 MHz, Single path-length method

FC(F)(F)C(F)(F)F [hexafluoroethane]
Settings	speed of sound [m/s]
250.8 K, 68.9 kPa	127.66 ± 0.09
250.8 K, 77.3 kPa	127.49 ± 0.09
250.8 K, 95 kPa	127.13 ± 0.09
250.8 K, 108.8 kPa	126.85 ± 0.1
250.8 K, 128.5 kPa	126.44 ± 0.1
250.8 K, 149.2 kPa	126.04 ± 0.1
250.8 K, 169.4 kPa	125.61 ± 0.1
250.8 K, 177.2 kPa	125.45 ± 0.1
250.8 K, 195.4 kPa	125.08 ± 0.1
250.8 K, 211.5 kPa	124.74 ± 0.1
250.8 K, 225.5 kPa	124.44 ± 0.1
256.2 K, 70.4 kPa	128.95 ± 0.09
256.2 K, 78.9 kPa	128.78 ± 0.09
256.2 K, 97 kPa	128.43 ± 0.09
256.2 K, 111.1 kPa	128.17 ± 0.09
256.2 K, 131.3 kPa	127.77 ± 0.1
256.2 K, 152.5 kPa	127.38 ± 0.1
256.2 K, 173.1 kPa	126.97 ± 0.1
256.2 K, 181.1 kPa	126.82 ± 0.1
256.2 K, 199.7 kPa	126.45 ± 0.1
256.2 K, 216.2 kPa	126.14 ± 0.1
256.2 K, 230.6 kPa	125.83 ± 0.1
261.5 K, 71.8 kPa	130.24 ± 0.09
261.5 K, 80.5 kPa	130.09 ± 0.09
261.5 K, 99 kPa	129.73 ± 0.09
261.5 K, 113.4 kPa	129.49 ± 0.09
261.5 K, 134.1 kPa	129.1 ± 0.09
261.5 K, 155.7 kPa	128.71 ± 0.09
261.5 K, 176.8 kPa	128.32 ± 0.1
261.5 K, 185 kPa	128.19 ± 0.1
261.5 K, 204 kPa	127.83 ± 0.1
261.5 K, 221 kPa	127.51 ± 0.1
261.5 K, 235.7 kPa	127.24 ± 0.1
266.8 K, 73.3 kPa	131.5 ± 0.09
266.8 K, 82.1 kPa	131.33 ± 0.09
266.8 K, 101.1 kPa	131.02 ± 0.09
266.8 K, 115.7 kPa	130.77 ± 0.09
266.8 K, 136.8 kPa	130.41 ± 0.09
266.8 K, 158.9 kPa	130.04 ± 0.09
266.8 K, 180.5 kPa	129.65 ± 0.09
266.8 K, 188.9 kPa	129.52 ± 0.09
266.8 K, 208.3 kPa	129.18 ± 0.1
266.8 K, 225.6 kPa	128.87 ± 0.1
266.8 K, 240.8 kPa	128.62 ± 0.1
272.1 K, 74.7 kPa	132.77 ± 0.09
272.1 K, 83.7 kPa	132.62 ± 0.09
272.1 K, 103.1 kPa	132.3 ± 0.09
272.1 K, 118 kPa	132.05 ± 0.09
272.1 K, 139.6 kPa	131.72 ± 0.09
272.1 K, 162.1 kPa	131.35 ± 0.09
272.1 K, 184.3 kPa	131.01 ± 0.09
272.1 K, 192.8 kPa	130.85 ± 0.09
272.1 K, 212.6 kPa	130.53 ± 0.09
272.1 K, 230.5 kPa	130.23 ± 0.1
272.1 K, 246.8 kPa	129.96 ± 0.1
277.4 K, 76.2 kPa	134.03 ± 0.09
277.4 K, 85.4 kPa	133.89 ± 0.09
277.4 K, 105.1 kPa	133.57 ± 0.09
277.4 K, 120.4 kPa	133.33 ± 0.09
277.4 K, 142.3 kPa	132.99 ± 0.09
277.4 K, 165.4 kPa	132.66 ± 0.09
277.4 K, 188 kPa	132.3 ± 0.09
277.4 K, 196.7 kPa	132.17 ± 0.09
277.4 K, 216.9 kPa	131.84 ± 0.09
277.4 K, 235.2 kPa	131.58 ± 0.09
277.4 K, 251.8 kPa	131.3 ± 0.1
282.7 K, 77.6 kPa	135.27 ± 0.09
282.7 K, 87 kPa	135.13 ± 0.09
282.7 K, 107.1 kPa	134.83 ± 0.09
282.7 K, 122.7 kPa	134.61 ± 0.09
282.7 K, 145.1 kPa	134.28 ± 0.09
282.7 K, 168.6 kPa	133.93 ± 0.09
282.7 K, 191.6 kPa	133.6 ± 0.09
282.7 K, 200.5 kPa	133.47 ± 0.09
282.7 K, 221.3 kPa	133.16 ± 0.09
282.7 K, 239.9 kPa	132.89 ± 0.09
282.7 K, 256.9 kPa	132.64 ± 0.1
287.9 K, 79.1 kPa	136.49 ± 0.09
287.9 K, 88.6 kPa	136.37 ± 0.09
287.9 K, 109.1 kPa	136.08 ± 0.09
287.9 K, 125 kPa	135.85 ± 0.09
287.9 K, 147.9 kPa	135.54 ± 0.09
287.9 K, 171.8 kPa	135.21 ± 0.09
287.9 K, 195.4 kPa	134.9 ± 0.09
287.9 K, 204.4 kPa	134.76 ± 0.09
